The text below walks through data of patent publication US10562914B2, “Imidazoles as histone demethylase inhibitors” (Istituto Europeo di Oncologia S.r.l., priority 2016, dated 2020).

Structures are written as SMILES. Structures can show the parent of a compound that is named as a salt.

The test concerns the target T1, human recombinant KDM1A/CoREST protein (Homo sapiens, UniProt O60341).
T1 construct: made in house; host or cells: E. coli
Description: Assay of enzyme inhibition of KDM1A (LSD1), TR-FRET. The test is classed as biochemical. The settings on record: 0.25 nM KDM1A/CoREST, 50 nM H3K4 monomethylated peptide, 20 min at RT. The protocol: 2.1 Assay of Enzyme Inhibition of KDM1A (LSD1)
The intensity of the light emission is proportional to the level of biotinylated reaction product. The complex of human recombinant KDM1A/CoREST protein was produced in E. coli as separate proteins and co-purified as previously described.
Demethylase reaction was started by the addition of 50 nM histone H3K4 monomethylated.
The resulting mixture was incubated in the dark for 1 h at RT. Then, TR-FRET signal was read by a fluorimeter (Infinite® F200, Tecan, Männedorf, Swirzerland) (Excitation 320 nm, Emission 665 nm and 620 nm, delay time 50 μs, window time 100 μs).
The inhibitor concentrations ranged from 0.025 to 500 μM (serial 1:3 dilutions). The IC50 was calculated using GraphPad Software.
On the technique in general: Time-resolved FRET reads energy transfer from a long-lived donor to a nearby acceptor.
By IC50 is commonly meant the concentration needed to halve the response being measured. As for `Cn1c(-c2nc(-c3ccccc3)cn2CCCc2ccc(OC3CCNCC3)cc2)cc2sccc21` [Example 51, 4-methyl-5-[4-phenyl-1-[3-[4-(4-piperidyloxy)phenyl]propyl]imidazol-2-yl]thieno[3,2-b]pyrrole hydrochloride], the IC50 was less than 100 nM.

In the case of `CCc1cn(CCOc2cccc(OC3CCCNCC3)c2)c(-c2cc3sccc3n2C)n1` (stereo not drawn) [Example 34, 5-[1-[2-[3-(azepan-4-yloxy)phenoxy]ethyl]-4-ethyl-imidazol-2-yl]-4-methyl-thieno[3,2-b]pyrrole hydrochloride], the IC50 is less than 100 nM.

As for `CCc1cn(CCc2ccc(OC3CCNCC3)cc2)c(-c2cc3sccc3n2C)n1` [Example 58, 5-[4-ethyl-1-[2-[4-(4-piperidyloxy)phenyl]ethyl]imidazol-2-yl]-4-methyl-thieno[3,2-b]pyrrole], the IC50 was less than 100 nM.

Turning to `CCn1c(-c2nc(C3CCC3)c[nH]2)cc2sccc21` [Example 12, 5-(4-cyclobutyl-1H-imidazol-2-yl)-4-ethyl-thieno[3,2-b]pyrrole], the IC50 was less than 1000 nM.

Consider `Cn1c(-c2ncc(C3CCC3)n2CCCc2ccc(OC3CCCNCC3)cc2)cc2sccc21` (stereo not drawn) [Example 62, 5-[1-[3-[4-(azepan-4-yloxy)phenyl]propyl]-5-cyclobutyl-imidazol-2-yl]-4-methyl-thieno[3,2-b]pyrrole hydrochloride], for which the 50% inhibitory concentration (IC50) is less than 100 nM.

On to `Cn1c(-c2ncc(C3CCC3)n2CCCc2ccc(OCC3CCNC3)cc2)cc2sccc21` (stereo not drawn) [Example 60, 5-[5-cyclobutyl-1-[3-[4-(pyrrolidin-3-ylmethoxy)phenyl]propyl]imidazol-2-yl]-4-methyl-thieno[3,2-b]pyrrole], for which the IC50 is less than 100 nM.

With `CCCc1cnc(-c2cc3sccc3n2C)n1CCOc1ccc(OC2CCNCC2)cc1` [Example 54, 4-methyl-5-[1-[2-[4-(4-piperidyloxy)phenoxy]ethyl]-5-propyl-imidazol-2-yl]thieno[3,2-b]pyrrole], the 50% inhibitory concentration (IC50) is less than 100 nM.

Regarding `CCc1[nH]c(-c2cc3sccc3n2C)nc1-c1ccccc1` [Example 9, 5-(5-ethyl-4-phenyl-1H-imidazol-2-yl)-4-methyl-thieno[3,2-b]pyrrole], the IC50 is less than 1000 nM.

As for `CCc1cn(CCCc2ccc(OCC3CCNCC3)c(OCC3CCNCC3)c2)c(-c2cc3sccc3n2C)n1` [Example 52, 5-[1-[3-[3,4-bis(4-piperidylmethoxy)phenyl]propyl]-4-ethyl-imidazol-2-yl]-4-methyl-thieno[3,2-b]pyrrole dihydrochloride], the IC50 is less than 100 nM.

Take `CC(C)c1[nH]c(-c2cc3sccc3n2C)nc1-c1ccccc1` [Example 10, 5-(5-isopropyl-4-phenyl-1H-imidazol-2-yl)-4-methyl-thieno[3,2-b]pyrrole]: the IC50 was less than 1000 nM.

Take `CCc1cnc(-c2cc3sccc3n2C)n1CCOc1cccc(OC2CCCNCC2)c1` (stereo not drawn) [Example 35, 5-[1-[2-[3-(azepan-4-yloxy)phenoxy]ethyl]-5-ethyl-imidazol-2-yl]-4-methyl-thieno[3,2-b]pyrrole hydrochloride]: the half-maximal inhibitory concentration (IC50) was less than 100 nM.

With `Cn1c(-c2ncc(C3CCC3)n2CCOc2ccc(OC3CCCNCC3)cc2)cc2sccc21` (stereo not drawn) [Example 37, 5-[1-[2-[4-(azepan-4-yloxy)phenoxy]ethyl]-5-cyclobutyl-imidazol-2-yl]-4-methyl-thieno[3,2-b]pyrrole], the IC50 was less than 100 nM.
